The text below walks through data of US9260710B2, “Photocleavable linker” (City of Hope, priority 2012, dated 2016).

Structures are written as SMILES. Bounds are passed on as bounds.

Test [1] has as its system TcTex1 and FKBP-IC peptide (TcTex1 trap). In words: Native PAGE and SEC of TcTex1 / TcTex-trap complex formation with AP20187. The test is classed as biochemical. The source says:
To generate a TcTex1 trap, residues 107-125 of rat dynein IC2C, which specifically interact with TcTex1, were fused to the C-terminus of FKBP (FKBP-IC; FIG. 10D). […] However, addition of AP20187 to the admixture of FKBP-IC (L112A) peptide and TcTex1 produced a shift, but required a 16-fold higher concentration of AP20187 than the LC8/LC8-trap interaction (FIG. 10E, round 2). Based on this observation, we hypothesized that the sequence immediately preceding the TcTex1-binding region may interfere with the interaction, either through conformational restriction due to P109 or electrostatic repulsion due to K111. Therefore, we mutated the sequence PIK to GGS, to introduce flexible, hydrophilic residues (residues 109-111) (FIG. 10D).

Test [2] has as its system GFP-LC8 trap transfected Cos1/Cos7 cells. The experiment in a line: Organelle dispersion and microtubule array in cells expressing the LC8 trap. The test is classed as cell-based. The source says: (§1) In vivo effect of Dynein LC and IC Traps. As tests for LC function, we evaluated the effects of the traps on early endosome, lysosome, and Golgi distribution, as well as mitotic progression. First, we fused green fluorescent protein (GFP) to the N-terminus of both FKBP-traps to identify transfected cells. Next, we transfected Cos1, Cos7, or HeLa cells with either trap or a GFP-FKBP control and labeled endosomes, lysosomes and Golgi with EEA1, LAMP2 and GM130 markers, respectively (FIGS. 12A-12C). […] The percentage of cells expressing the GFPLC8 or GFP-TcTex1 trap with dispersed endosomes was 14.7±1.5% and 13.3±1.5%, respectively, as compared to 11.7±3.5% and 10.3±3.5% for non-transfected cells and cells that expressed a GFP-FKBP control, respectively. […] After 8 h of treatment with AP20187, we observed greater than 50% dispersion of the three organelle types for each trap.
(§2) To ensure the AP20187 concentration was not limiting, we followed the LC8-trap-induced dispersion of lysosomes as a function of AP20187 concentration after 8 h. […] For the TcTex1-trap, we observed efficient endosome, lysosome and Golgi dispersion at AP20187 concentrations of 1 μM or greater.
(§3) Kinetic Analysis Separates Dynein Functions. A major purpose for developing these traps is to provide immediate inhibition of protein function and follow the cellular response from this perturbation to gain new insight. Thus, we monitored the fraction of cells with dispersed organelles as a function of time. After induction of dimerization by AP20187, effects on both early endosome and lysosome distribution were detectable at 10 min, and leveled off at ˜2 h (FIGS. 14A-14B). […] The most rapid effect was observed on lysosomes in cells expressing the LC8 trap. In striking contrast, Golgi dispersal using either trap occurred over a much longer time-course, requiring 8 h after induction of dimerization to reach similar levels of dispersion as for endosomes and lysosomes. Twenty-four hours after addition of AP20187, the percentage of cells with dispersed Golgi reached levels greater than 85%.

Test [3] relates to GFP-TcTex1 trap transfected Cos1/Cos7 cells. In words: Organelle dispersion and microtubule array in cells expressing the TcTex1 trap. Also on record: dispersion of the three organelle types (early endosomes, lysosomes, Golgi): dose or concentration left out as unconfirmed. The test is classed as cell-based.
Text: as §1, §2, §3

The subject of test [4] is non-transfected or GFPFKBP-expressing cells. The experiment in a line: Organelle dispersion in cells without trap treated with AP20187. It counts as cell-based.
Text: as §1, §2

Setting [5] is: modified FKBP-IC trap, PIK to GGS (round 3).
The mark [6] stands for this setting: after induction of dimerization.
The mark [7] stands for this setting: twenty-four hours after addition.

As to `CCC(C(=O)N1CCCCC1C(=O)OC(CCc1ccc(OC)c(OC)c1)c1cccc(OCC(=O)NCC(CNC(=O)COc2cccc(C(CCc3ccc(OC)c(OC)c3)OC(=O)C3CCCCN3C(=O)C(CC)c3cc(OC)c(OC)c(OC)c3)c2)CN(C)C)c1)c1cc(OC)c(OC)c(OC)c1` (stereo not shown) [AP, AP20187], the “fold higher concentration of AP20187 required for shift than the LC8/LC8-trap interaction” value in test [1] (FKBP-IC (L112A) peptide and TcTex1 (round 2)) was determined as 16 fold. The “concentration of AP20187 to fully sequester TcTex1 relative to that required for the LC8-trap” value in test [1] (setting [5]) is “approximately twice”. In test [1] (setting [5]), the “fold lower concentration of AP20187 to fully sequester TcTex1 than the FKBP-IC (L112A) peptide” value was roughly 8 fold. In addition, the “dispersion of the three organelle types (early endosomes, lysosomes, Golgi)” value in test [2] (8 h of treatment, 100 μM AP20187) was “greater than 50%”; in test [3] (8 h of treatment), “greater than 50%”. Besides, the “microtubule radial array / cytoskeleton changes” value in test [2] (8 h post-induction) and in test [3] (8 h post-induction) was “No significant changes” in each case. For the same molecule, the “AP20187 concentration at which lysosome dispersion reached a plateau” value in test [2] (after 8 h) was 100 nM. Moreover, the “time at which effects on early endosome and lysosome distribution leveled off” value in test [2] (setting [6]) and in test [3] (setting [6]) was roughly 2 h in each case. Also, the “time at which effects on early endosome and lysosome distribution were detectable” value in test [2] (setting [6]) and in test [3] (setting [6]) was 10 min in each case. Moreover, the “time required for Golgi dispersal to reach similar levels as endosomes and lysosomes” value in test [2] (setting [6]) and in test [3] (setting [6]) was 8 h in each case. The “percentage of cells with dispersed Golgi” value in test [2] (setting [7]) and in test [3] (setting [7]) was “greater than 85%” throughout. Moreover, in test [3], the “AP20187 concentrations giving efficient endosome, lysosome and Golgi dispersion” value is no less than 1 µM. In test [4] (AP20187 for 8 h), the “effect on dispersion for each organelle” value is recorded as “did not affect the dispersion”. The “dispersal of organelles at any concentration tested” value in test [4] (non-transfected cells, <2 μM) is listed as “did not show dispersal”.
